# Columns and labels:
# [1] = biological target: Adenosine receptor A2a (Homo sapiens) (UniProt P29274); test: GPCRScan assay: inhibition of A2A; details: Compound concentration 10.0 uM
# [2] = biological target: Tyrosine-protein kinase ABL1 (Homo sapiens) (UniProt P00519); test: ABL1 SGC Tm panel (DSF); details: Compound concentration 20.0 uM
# [3] = biological target: MAP/microtubule affinity-regulating kinase 3 (Homo sapiens) (UniProt P27448); test: MARK3 SGC Tm panel (DSF); details: Compound concentration 20.0 uM
# [4] = biological target: MAP/microtubule affinity-regulating kinase 4 (Homo sapiens) (UniProt Q96L34); test: MARK4 SGC Tm panel (DSF); details: Compound concentration 20.0 uM
# [5] = biological target: Serine/threonine-protein kinase OSR1 (Homo sapiens) (UniProt O95747); test: OSR1 SGC Tm panel (DSF); details: Compound concentration 20.0 uM
# [6] = biological target: Serine/threonine-protein kinase PAK 4 (Homo sapiens) (UniProt O96013); test: PAK4 SGC Tm panel (DSF); details: Compound concentration 20.0 uM
# [7] = biological target: Ribosomal protein S6 kinase alpha-1 (Homo sapiens) (UniProt Q15418); test: RPS6KA1 SGC Tm panel (DSF); details: Compound concentration 20.0 uM
# [8] = biological target: Serine/threonine-protein kinase 10 (Homo sapiens) (UniProt O94804); test: STK10 SGC Tm panel (DSF); details: Compound concentration 20.0 uM
# [9] = biological target: Lymphokine-activated killer T-cell-originated protein kinase (Homo sapiens) (UniProt Q96KB5); test: TOPK SGC Tm panel (DSF); details: Compound concentration 20.0 uM
# [10] = biological target: 5-hydroxytryptamine receptor 2A (Homo sapiens) (UniProt P28223); details: Compound concentration 10.0 uM
# [11] = biological target: Sodium-dependent dopamine transporter (Homo sapiens, UniProt Q01959); details: Compound concentration 10.0 uM
# [12] = biological target: Alpha-1A adrenergic receptor (Homo sapiens) (UniProt P35348); details: Compound concentration 10.0 uM
# [13] = biological target: Alpha-2B adrenergic receptor (Homo sapiens) (UniProt P18089); details: Compound concentration 10.0 uM
# [14] = biological target: Muscarinic acetylcholine receptor M1 (Homo sapiens) (UniProt P11229); details: Compound concentration 10.0 uM
# [15] = biological target: T1, Zinc finger and BTB domain-containing protein 44 (Homo sapiens) (UniProt Q8NCP5); details: SUD4, Compound concentration 1.0 uM
# T1 sequence (whole entry): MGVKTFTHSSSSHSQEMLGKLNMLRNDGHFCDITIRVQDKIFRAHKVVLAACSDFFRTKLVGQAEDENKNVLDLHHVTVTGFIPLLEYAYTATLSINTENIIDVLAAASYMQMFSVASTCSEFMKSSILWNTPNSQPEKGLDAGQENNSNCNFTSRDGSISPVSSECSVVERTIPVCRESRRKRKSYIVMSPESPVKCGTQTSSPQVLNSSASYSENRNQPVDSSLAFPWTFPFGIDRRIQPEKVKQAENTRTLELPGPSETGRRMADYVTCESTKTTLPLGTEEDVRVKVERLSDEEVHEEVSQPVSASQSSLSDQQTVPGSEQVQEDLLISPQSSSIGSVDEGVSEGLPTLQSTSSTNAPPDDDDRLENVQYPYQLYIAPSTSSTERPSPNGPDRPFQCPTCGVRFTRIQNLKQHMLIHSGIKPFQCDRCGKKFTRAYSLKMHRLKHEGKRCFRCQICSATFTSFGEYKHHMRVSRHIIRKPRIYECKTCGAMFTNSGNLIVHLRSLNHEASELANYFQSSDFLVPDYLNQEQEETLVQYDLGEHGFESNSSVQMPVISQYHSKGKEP
# [16] = biological target: T2, Zinc finger and BTB domain-containing protein 24 (Homo sapiens) (UniProt O43167); details: SUD4, Compound concentration 1.0 uM
# T2 sequence (whole entry): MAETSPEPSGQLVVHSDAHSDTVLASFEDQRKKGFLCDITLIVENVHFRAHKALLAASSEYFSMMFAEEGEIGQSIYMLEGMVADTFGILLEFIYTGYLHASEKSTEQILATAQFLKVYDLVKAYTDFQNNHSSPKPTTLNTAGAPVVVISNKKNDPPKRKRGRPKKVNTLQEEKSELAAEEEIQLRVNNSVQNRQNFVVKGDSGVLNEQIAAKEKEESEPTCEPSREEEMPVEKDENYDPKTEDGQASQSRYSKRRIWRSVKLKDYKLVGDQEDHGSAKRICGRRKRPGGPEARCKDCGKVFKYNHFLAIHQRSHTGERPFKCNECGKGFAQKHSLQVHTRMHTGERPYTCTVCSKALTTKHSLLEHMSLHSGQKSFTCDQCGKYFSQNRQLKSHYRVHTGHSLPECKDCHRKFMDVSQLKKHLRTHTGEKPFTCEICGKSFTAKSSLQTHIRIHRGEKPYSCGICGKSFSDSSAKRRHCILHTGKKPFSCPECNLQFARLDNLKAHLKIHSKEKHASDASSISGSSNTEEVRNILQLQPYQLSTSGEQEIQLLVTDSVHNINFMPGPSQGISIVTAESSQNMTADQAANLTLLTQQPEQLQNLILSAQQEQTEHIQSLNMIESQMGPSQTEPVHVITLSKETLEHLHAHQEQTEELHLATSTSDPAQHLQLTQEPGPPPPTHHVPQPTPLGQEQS
# Myoneurin (Homo sapiens) = Myoneurin (Homo sapiens) (UniProt Q9NPC7); details: SUD4, Compound concentration 1.0 uM
# [17] = biological target: T2, Zinc finger and BTB domain-containing protein 24 (Homo sapiens); details: SUD4, Compound concentration 1.0 uM; remark: listed apart in the source
# [18] = biological target: T3, Zinc finger and BTB domain-containing protein 2 (Homo sapiens) (UniProt Q8N680); details: SUD4, Compound concentration 1.0 uM
# T3 sequence (whole entry): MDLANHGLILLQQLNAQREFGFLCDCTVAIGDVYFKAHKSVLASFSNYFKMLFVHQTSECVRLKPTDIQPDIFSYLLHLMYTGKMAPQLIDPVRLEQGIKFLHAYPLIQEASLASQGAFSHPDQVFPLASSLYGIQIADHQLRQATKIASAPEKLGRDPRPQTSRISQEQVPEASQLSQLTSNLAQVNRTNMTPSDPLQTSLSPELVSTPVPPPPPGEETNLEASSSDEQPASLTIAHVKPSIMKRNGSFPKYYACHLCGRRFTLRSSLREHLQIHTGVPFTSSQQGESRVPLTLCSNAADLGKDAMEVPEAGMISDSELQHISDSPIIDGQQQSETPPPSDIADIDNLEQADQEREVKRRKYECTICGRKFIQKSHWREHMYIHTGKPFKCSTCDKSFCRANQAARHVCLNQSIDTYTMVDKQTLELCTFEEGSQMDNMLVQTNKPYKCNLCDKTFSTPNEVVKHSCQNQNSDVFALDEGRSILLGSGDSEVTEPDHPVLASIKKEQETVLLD
# [19] = biological target: Zinc finger and BTB domain-containing protein 17 (Homo sapiens) (UniProt Q13105); details: SUD4, Compound concentration 1.0 uM
# [20] = biological target: B-cell lymphoma 6 protein (Homo sapiens, UniProt P41182); details: OCI-Ly1, Compound concentration 1.0 uM
# MAP/microtubule affinity-regulating kinase 4 (Homo sapiens), sequence (Q96L34 whole entry): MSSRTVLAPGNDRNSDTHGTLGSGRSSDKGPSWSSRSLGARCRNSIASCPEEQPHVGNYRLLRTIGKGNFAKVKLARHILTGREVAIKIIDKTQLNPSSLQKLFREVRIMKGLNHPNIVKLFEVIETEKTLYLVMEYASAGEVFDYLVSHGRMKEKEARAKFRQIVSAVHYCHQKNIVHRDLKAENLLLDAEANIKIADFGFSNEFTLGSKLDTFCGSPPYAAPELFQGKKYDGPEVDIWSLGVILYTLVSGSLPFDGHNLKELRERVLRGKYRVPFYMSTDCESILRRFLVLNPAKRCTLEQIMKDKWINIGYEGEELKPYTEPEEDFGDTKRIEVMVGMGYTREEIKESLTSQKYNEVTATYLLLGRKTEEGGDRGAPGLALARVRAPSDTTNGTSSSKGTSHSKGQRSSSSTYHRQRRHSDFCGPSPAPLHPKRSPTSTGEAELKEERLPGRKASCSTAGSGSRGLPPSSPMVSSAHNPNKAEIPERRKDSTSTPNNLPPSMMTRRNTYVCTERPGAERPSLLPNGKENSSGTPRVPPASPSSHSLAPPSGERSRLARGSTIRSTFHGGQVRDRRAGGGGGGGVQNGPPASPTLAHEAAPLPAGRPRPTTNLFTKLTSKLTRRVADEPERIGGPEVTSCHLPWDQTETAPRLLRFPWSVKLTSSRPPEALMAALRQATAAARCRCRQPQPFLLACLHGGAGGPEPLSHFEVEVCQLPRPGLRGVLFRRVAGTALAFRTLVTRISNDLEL
# Zinc finger and BTB domain-containing protein 17 (Homo sapiens), sequence (Q13105 whole entry, the tested form may be a part): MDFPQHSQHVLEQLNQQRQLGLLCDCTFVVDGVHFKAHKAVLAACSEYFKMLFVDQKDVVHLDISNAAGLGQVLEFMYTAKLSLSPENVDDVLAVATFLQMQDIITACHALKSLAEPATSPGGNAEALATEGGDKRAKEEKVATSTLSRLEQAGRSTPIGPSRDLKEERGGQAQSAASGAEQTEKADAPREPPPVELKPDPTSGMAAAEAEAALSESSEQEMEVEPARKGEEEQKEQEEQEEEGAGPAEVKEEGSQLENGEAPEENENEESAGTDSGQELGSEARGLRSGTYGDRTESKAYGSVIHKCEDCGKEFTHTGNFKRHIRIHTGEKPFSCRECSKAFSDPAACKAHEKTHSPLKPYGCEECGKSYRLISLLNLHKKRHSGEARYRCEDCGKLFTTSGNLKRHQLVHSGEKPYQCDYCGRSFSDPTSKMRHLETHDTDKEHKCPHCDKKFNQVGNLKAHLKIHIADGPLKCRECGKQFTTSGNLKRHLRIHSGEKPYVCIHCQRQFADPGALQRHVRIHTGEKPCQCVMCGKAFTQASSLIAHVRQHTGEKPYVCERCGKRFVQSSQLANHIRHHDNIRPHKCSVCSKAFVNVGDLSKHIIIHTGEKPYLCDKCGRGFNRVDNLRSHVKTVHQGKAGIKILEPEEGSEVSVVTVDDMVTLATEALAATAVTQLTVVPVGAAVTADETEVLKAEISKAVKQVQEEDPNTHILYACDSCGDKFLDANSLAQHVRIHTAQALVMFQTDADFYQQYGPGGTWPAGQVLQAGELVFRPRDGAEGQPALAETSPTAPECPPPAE
# Muscarinic acetylcholine receptor M1 (Homo sapiens), sequence (P11229 whole entry, the tested form may be a part): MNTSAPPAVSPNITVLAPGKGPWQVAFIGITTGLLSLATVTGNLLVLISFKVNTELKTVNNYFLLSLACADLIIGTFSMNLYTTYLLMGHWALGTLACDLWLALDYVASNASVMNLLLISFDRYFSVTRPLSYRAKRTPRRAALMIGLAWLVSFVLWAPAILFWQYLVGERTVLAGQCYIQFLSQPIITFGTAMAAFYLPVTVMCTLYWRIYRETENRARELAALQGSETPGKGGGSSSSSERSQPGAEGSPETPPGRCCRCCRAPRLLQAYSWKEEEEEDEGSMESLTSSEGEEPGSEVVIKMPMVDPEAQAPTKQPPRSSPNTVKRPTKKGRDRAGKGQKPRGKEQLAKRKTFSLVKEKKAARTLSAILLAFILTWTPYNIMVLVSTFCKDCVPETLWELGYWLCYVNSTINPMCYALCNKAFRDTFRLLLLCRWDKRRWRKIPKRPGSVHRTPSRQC
# Ribosomal protein S6 kinase alpha-1 (Homo sapiens), sequence (Q15418 whole entry): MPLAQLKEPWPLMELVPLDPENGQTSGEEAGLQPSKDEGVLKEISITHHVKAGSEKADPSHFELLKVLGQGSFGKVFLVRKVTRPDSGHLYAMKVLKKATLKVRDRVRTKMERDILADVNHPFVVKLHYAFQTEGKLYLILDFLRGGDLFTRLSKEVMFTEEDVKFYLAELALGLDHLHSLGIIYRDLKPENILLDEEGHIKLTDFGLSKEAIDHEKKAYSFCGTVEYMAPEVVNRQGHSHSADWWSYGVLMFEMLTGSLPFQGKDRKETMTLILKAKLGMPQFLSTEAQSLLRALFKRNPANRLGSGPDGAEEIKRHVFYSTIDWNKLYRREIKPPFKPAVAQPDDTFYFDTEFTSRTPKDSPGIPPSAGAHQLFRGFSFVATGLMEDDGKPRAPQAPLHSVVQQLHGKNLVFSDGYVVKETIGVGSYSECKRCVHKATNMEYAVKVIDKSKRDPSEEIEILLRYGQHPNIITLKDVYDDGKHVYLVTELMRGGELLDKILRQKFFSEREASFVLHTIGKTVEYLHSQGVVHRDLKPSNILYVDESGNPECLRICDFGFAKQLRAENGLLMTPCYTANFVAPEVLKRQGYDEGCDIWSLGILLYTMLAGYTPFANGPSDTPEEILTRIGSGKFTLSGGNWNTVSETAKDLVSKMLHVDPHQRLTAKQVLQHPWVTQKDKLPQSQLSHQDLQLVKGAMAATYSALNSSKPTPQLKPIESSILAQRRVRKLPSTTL
# Sodium-dependent dopamine transporter, sequence (Q01959 whole entry): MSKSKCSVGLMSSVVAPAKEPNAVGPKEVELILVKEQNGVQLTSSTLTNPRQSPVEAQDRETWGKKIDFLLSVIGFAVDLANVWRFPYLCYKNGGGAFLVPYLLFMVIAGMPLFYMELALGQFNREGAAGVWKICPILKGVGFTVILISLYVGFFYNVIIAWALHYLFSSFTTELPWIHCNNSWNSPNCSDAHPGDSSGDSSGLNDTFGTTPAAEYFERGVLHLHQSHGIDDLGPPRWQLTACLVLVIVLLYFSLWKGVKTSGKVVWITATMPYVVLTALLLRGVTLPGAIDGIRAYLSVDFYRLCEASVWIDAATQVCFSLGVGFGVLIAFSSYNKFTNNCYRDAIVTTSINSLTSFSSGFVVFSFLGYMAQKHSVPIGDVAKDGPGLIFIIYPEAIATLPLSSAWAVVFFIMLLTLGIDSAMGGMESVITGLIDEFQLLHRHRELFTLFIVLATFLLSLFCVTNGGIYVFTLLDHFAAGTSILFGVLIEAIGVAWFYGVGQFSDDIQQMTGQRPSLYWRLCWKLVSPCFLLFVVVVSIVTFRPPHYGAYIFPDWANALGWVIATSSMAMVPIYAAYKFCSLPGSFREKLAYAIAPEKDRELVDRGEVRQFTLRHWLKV
# Tyrosine-protein kinase ABL1 (Homo sapiens), sequence (P00519 whole entry): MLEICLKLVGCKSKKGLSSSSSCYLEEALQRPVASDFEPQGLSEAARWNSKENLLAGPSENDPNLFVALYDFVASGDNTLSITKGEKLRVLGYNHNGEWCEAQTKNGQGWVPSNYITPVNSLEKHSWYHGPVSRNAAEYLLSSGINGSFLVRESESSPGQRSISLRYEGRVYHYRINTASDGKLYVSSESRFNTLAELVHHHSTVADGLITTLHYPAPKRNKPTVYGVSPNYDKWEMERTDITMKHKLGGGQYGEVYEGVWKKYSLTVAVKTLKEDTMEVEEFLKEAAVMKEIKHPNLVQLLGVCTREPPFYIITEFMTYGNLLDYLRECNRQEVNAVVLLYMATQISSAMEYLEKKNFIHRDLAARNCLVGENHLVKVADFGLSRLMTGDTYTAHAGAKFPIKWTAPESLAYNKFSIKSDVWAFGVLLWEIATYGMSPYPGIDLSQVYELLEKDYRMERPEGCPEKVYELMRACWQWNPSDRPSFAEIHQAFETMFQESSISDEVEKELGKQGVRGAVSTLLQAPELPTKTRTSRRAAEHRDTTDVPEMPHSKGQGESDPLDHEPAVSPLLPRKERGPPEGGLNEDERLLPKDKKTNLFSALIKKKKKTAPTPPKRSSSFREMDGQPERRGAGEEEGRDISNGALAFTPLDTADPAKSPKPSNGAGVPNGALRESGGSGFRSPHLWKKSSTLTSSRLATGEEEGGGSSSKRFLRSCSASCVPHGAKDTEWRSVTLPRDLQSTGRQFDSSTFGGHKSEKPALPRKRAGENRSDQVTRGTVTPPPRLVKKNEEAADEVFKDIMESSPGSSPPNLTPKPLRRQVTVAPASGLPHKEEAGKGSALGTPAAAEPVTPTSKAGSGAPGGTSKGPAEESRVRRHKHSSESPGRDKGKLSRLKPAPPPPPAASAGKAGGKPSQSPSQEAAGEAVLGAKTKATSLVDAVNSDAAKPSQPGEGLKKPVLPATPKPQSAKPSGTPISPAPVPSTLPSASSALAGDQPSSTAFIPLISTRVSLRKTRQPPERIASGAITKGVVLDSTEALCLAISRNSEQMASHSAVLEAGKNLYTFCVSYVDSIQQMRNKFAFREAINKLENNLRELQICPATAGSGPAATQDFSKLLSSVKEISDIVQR
# 5-hydroxytryptamine receptor 2A (Homo sapiens), sequence (P28223 whole entry): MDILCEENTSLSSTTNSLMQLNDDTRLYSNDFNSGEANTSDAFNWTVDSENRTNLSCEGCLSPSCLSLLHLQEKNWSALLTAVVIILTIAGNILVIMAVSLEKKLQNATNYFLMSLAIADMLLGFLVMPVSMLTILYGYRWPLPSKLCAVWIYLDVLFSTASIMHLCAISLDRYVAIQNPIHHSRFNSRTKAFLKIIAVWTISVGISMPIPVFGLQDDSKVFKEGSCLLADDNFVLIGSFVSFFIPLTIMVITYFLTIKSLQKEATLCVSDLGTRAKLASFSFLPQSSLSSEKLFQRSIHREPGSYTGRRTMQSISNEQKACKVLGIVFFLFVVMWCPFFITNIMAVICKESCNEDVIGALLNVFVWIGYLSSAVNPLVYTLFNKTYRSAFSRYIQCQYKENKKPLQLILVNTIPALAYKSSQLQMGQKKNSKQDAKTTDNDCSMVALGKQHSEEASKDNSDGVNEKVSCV
smiles,measurement,setting,value
C[C@@H]1CN(c2ncc(Cl)c(Nc3ccc4c(c3)n(CCC(C)(C)O)c(=O)n4C)n2)C[C@H](C)C1(F)F,inhibition,[1],-3.49%
same,Tm,[2],46 °C
same,Tm,[3],35 °C
same,Tm,[4],36 °C
same,Tm,[5],39 °C
same,Tm,[6],46 °C
same,Tm,[7],50 °C
same,Tm,[8],42 °C
same,Tm,[9],43 °C
same,inhibition,[10],23.6%
same,inhibition,[11],50.8%
same,inhibition,[12],7.7%
same,inhibition,[13],7.28%
same,inhibition,[14],3.3%
same,LogFC,[15],-0.00843
same,LogFC,[16],0.0258
same,LogFC,Myoneurin (Homo sapiens),-0.189
same,LogFC,[17],0.00149
same,LogFC,[18],0.153
same,LogFC,[19],-0.0472
same,LogFC,[20],-2.79

# Source: ChEMBL document CHEMBL5058646 (2022)
